Test results published in patent publication US20110082197A1, “Method for inhibiting formation and/or activation of osteoclasts using flemingia macrophylla extract or lespedeza flavanone A” (CHINA MEDICAL UNIVERSITY, priority 2009, published 2011).

Key:
OVX rats [1] = experiment: Tissue analysis of tibiae (H&E, TRAP staining); type: in vivo, Wistar rats; details: oral, alendronate 2.5 mg/kg-body weight per day, 13 weeks
Experimental: (§1) Female Wistar rats (BioLASCO, Taipei, Taiwan) were used in the following experiments. In an experiment group, the rats were anesthetized with 40 mg/kg-body weight of pentobarbital sodium, and ovaries in both sides of the dorsum of the rats were removed to induce osteoporosis, and a decrease in estrogen of the postmenopausal female rats was observed. The rats of which ovaries were removed (i.e., ovariectomized rat) are represented as “OVX rats” hereinafter. In the control group (i.e., a sham group), the skin and muscle on the ovary positions at both sides of the dorsum of the rats were incised and then sutured, while the ovaries were not removed.
(§2) After one week from the surgery, the control group was administrated water orally every day. […] During the administration, the body weight of each rat was measured once a week until the last day of the administration. Distilled water was added into the extract to form a suspension, and the rats were administrated orally with 1 ml/100 g-body weight of the suspension.
The left tibiae of the rats in Example 3 were taken and fixed with 4 vol % metaformaldehyde (in a phosphate buffer solution, PBS, pH 7.4) for 48 hours, and calcium was removed in a solution (pH 7.4) of 10 wt % EDTA (ethylenediamine tetraacetic acid) at 4° C. for 4 weeks. After calcium was removed, the bones were cut to generate a cross-section, and tissue staining was carried out with hematoxylin and eosin. […] The microscope images were analyzed with a color image analysis system (Image-Pro Plus version 5.1, Media Cybernetics, Maryland, USA), and the volume of trabecular bones and the thickness of […] of metaphysis of the rats were measured. […]
In another aspect, the above cross-section was stained with a TRAP (tartrate-resistant acid phosphatase) kit (Sigma-Aldrich, St. Louis, Mo., USA), and the number of osteoclasts was measured (see Cole et al., Tartrate-resistant acid phosphatase in bone and cartilage following decalcification and cold-embedding in plastic. J Histochem Cyrochem, 1987: 35, 203-6, which is entirely incorporated hereinto by reference).

OVX rats [2] = experiment: Weight ratio of bone ash and calcium content of fifth vertebra; type: in vivo, Wistar rats; details: bone ash, per bone volume, oral, alendronate 2.5 mg/kg-body weight per day, 13 weeks
Experimental: as §1, §2
The fifth sections of the vertebrae of the rats in Example 3 were dissected in an ethanol bath and dried at 100° C. overnight, and the dry weight of the vertebrae was measured. […] After the cremation, bone ash was collected, and the weight ratio of the bone ash (represented as the percentage of the dry weight of the vertebrae) was measured. […]

OVX rats [3] = experiment: Body weight and vagina weight of ovariectomized rats after 13 weeks of oral administration; type: in vivo, Wistar rats; details: alendronate 2.5 mg/kg-body weight per day
Experimental: as §1, §2
After the end of the administration in Example 2, the rats were anesthetized with a high dosage of pentobarbital sodium (65 mg/kg-body weight) and were sacrificed. Blood samples of the rats were then collected, and tibiae and vertebrae of the rats were dissected, and vaginas were taken out from the rats and the weight of the vaginas was measured.

OVX rats [4] = experiment: Biochemical values of blood and urine (ALP, calcium, DPD); type: in vivo, Wistar rats; details: oral, alendronate 2.5 mg/kg-body weight per day, 13 weeks
Experimental: as §1, §2
The activity of ALP (alkaline phosphatase) and the content of calcium and creatinine in the blood and urine of the rats were measured with a clinical trial kit (Roche Diagnostics, Mannheim, Germany) and a spectrophotometric analyzer (Cobas Mira Plus, Roche, Rotkreuz, Switzerland), and the calcium content in the urine and blood of the rats was also measured with a method using o-cresolphthalein complexone (Randox, UK). ALP is a bio-indicator or molecular marker of an early activation stage of preosteoblasts, and based on ALP activity, the activation situation of preosteoblasts can be observed. The calcium content in the urine is represented as “mg/mmol creatinine in the urine.”
Moreover, the content of deoxypyridinoline (DPD) in the urine was measured with ELISA (enzyme linked immunosorbent assay) (an ELISA kit is purchased from Metra, San Diego, Calif., USA), and is represented as “[…] creatinine in the urine.” The results are shown in Table 5. […]

OVX rats [5] = experiment: Density and content of minerals in tibiae (dual-energy X-ray absorptiometer); type: in vivo, Wistar rats; details: oral, alendronate 2.5 mg/kg-body weight per day, 13 weeks
Text: Female Wistar rats (BioLASCO, Taipei, Taiwan) were used in the following experiments. […] The rats of which ovaries were removed (i.e., ovariectomized rat) are represented as “OVX rats” hereinafter. In the control group (i.e., a sham group), the skin and muscle on the ovary positions at both sides of the dorsum of the rats were incised and then sutured, while the ovaries were not removed.

osteoclast precursors = experiment: Differentiation test of osteoclasts (RANKL/M-CSF induced, TRAP staining); type: cell-based, Wistar rats; details: for effect of ICI 182,780 on the inhibition of osteoclast formation: 1 nM ICI 182,780 (antagonist of estrogen receptors), result in words
Experimental: Bone marrow was taken out from the femurs and tibiae of Wistar rats, and bone marrow cavities were washed with a α-minimum essential medium (Hyclone, Logan, Utah, USA) comprising a 20 mmol HEPES buffer solution, 10 vol % heat-inactivated fetal bovine serum, 2 mmol glutamine, 100 U/ml penicillin, and 100 µg/ml streptomycin. After 24 hours, inadhesive hematopoietic cells that were washed were collected, and were used as osteoclast precursors.
The aforesaid precursor cells were incubated in 24-wells culture plates with a density of 1×10^6 cells/well, and the culture plates comprised soluble human recombinant RANKL (50 ng/ml, PeproTech EC, London, UK) and M-CSF (20 ng/ml, PeproTech EC). Under the induction of M-CSF and RANKL, the precursor cells may differentiate into osteoclasts.
Then, various concentrations of the Flemingia macrophylla extract or Lespedeza flavanone A were added into the culture plates, and culture medium was replaced once every 3 days. On the ninth day, osteoclasts were stained with a TRAP staining kit, and the formation of osteoclasts was observed. The cells were then fixed with 10 vol % formaldehyde (in a phosphate buffer solution) for three minutes, and were stained with Naphthol AS-Mx phosphate and a tartaric acid solution at 37° C. for 1 hour. TRAP-positive multinucleated osteoclasts with more than three nuclei were regarded as osteoclasts (see Asagiri et al., The molecular understanding of osteoclast differentiation, Bone, 2007, 40: 251-64, which is entirely incorporated hereinto by reference).
To clarify the mechanism of Lespedeza flavanone A, an experiment was carried out with 1 nM ICI 182,780 (an antagonist of estrogen receptors) (see Howell et al., ICI 182,780 (Faslodex): development of a novel, “pure” antiestrogen, Cancer, 2000, 89: 817-825, which is entirely incorporated hereinto by reference), and influence of ICI 182,780 on the formation of osteoclasts was observed, and 10 nM 17β-estradiol was used for comparison.

| Structure (SMILES) | osteoclast number/bone surface (OVX rats [1]; TRAP staining, tibia) | thickness of dermal bones (OVX rats [1]; tibia metaphysis) | trabecular bone volume/tissue volume (OVX rats [1]; tibia metaphysis) | calcium content (OVX rats [2]) | average body weight after 13 weeks from the surgery (OVX rats [3]) | average vagina weight (OVX rats [3]) | DPD content in urine (OVX rats [4]; ELISA) | ALP (OVX rats [4]; blood serum) | calcium content in urine (OVX rats [4]) | mineral content (OVX rats [5]) | effect of ICI 182,780 on the inhibition of osteoclast formation (osteoclast precursors) | the percentage of osteoclast formation (osteoclast precursors; 10.0 nM with ICI 182,780 (1 nM), day 9) | the percentage of osteoclast formation (osteoclast precursors; 10.0 nM, day 9, control = 100) | the percentage of osteoclast formation (osteoclast precursors; 0.1 μM with ICI 182,780 (1 nM), day 9) | the percentage of osteoclast formation (osteoclast precursors; 0.1 μM, day 9, control = 100) | the percentage of osteoclast formation (osteoclast precursors; 1.0 μM with ICI 182,780 (1 nM), day 9) | the percentage of osteoclast formation (osteoclast precursors; 1.0 μM, day 9, control = 100) | the percentage of osteoclast formation (osteoclast precursors; 10.0 μM with ICI 182,780 (1 nM), day 9) | the percentage of osteoclast formation (osteoclast precursors; 10.0 μM, day 9, control = 100) |
| --- | --- | --- | --- | --- | --- | --- | --- | --- | --- | --- | --- | --- | --- | --- | --- | --- | --- | --- | --- |
| NCCCC(O)(P(=O)(O)O)P(=O)(O)O [alendronate] | 2.7 ± 0.4 mm | 215.0 ± 10.2 μm | 36.1 ± 1.1 % | 206.1 ± 24.2 mg/mL | 377.8 ± 36.5 g | 0.18 ± 0.01 g | 281.2 ± 52.3 mg/mmol creatinine | 163.5 ± 24.0 U/L | 45.2 ± 14.8 mg/mmol creatinine | 0.38 ± 0.01 g |  |  |  |  |  |  |  |  |  |
| C[C@]12CC[C@@H]3c4ccc(O)cc4CC[C@H]3[C@@H]1CC[C@@H]2O [17β-estradiol] |  |  |  |  |  |  |  |  |  |  | clearly inhibited the inhibition effect | 83.0 ± 13.2 % | 57.7 ± 8.1 % |  |  |  |  |  |  |
| COc1ccc([C@@H]2CC(=O)c3c(O)c(CC=C(C)C)c(O)c(CC=C(C)C)c3O2)c(O)c1 [LDF-A, 5,7,2-trihydroxy-6,8-di-r,r-dimethylallyl-4-methoxyflavanone] |  |  |  |  |  |  |  |  |  |  | did not inhibit the inhibition effect |  |  | 65.0 ± 11.5% | 70.7 ± 9.5 % | 49.0 ± 6.2% | 60.0 ± 5.2 % | 26.0 ± 8.9% | 27.0 ± 2.6 % |
